From paper PMC10144514, “Imageological/Structural Study regarding the Improved Pharmacokinetics by ^68Ga-Labeled PEGylated PSMA Multimer in Prostate Cancer” (Pharmaceuticals, 2023)

How the values were obtained:
[1] = In vitro stability of radiotracers in PBS (radiochemical purity by HPLC); type: physicochemical; details: incubated in PBS at 37 °C for 2 h
Protocol: (§1) All solvents and reagents were purchased from Sigma-Aldrich (Shanghai, China) and Shanghai yuanye Bio-Technology (Shanghai, China). DOTA-(1P-PEG4), DOTA-(2P-PEG0), DOTA(DOTA-(2P-PEG4), and (DOTA-(2P-PEG4)2 were synthesized by Bidepharm (Shanghai, China), and characterized by HPLC and mass spectrometry. Radio-HPLC analyses of the radiotracers were carried out using C18 column (5 µm, 4.6 × 250 mm, ZORBAX Eclipse Plus, Agilent, Milford, MA, USA), and analytical grade solvent by solvent A (0.1% trifluoroacetic acid (TFA) in water) and solvent B (0.1% TFA in acetonitrile). A ^68Ge/^68Ga generator was purchased from ITM Medical Isotopes (Munich, Germany). The γ count was measured by a CAPRAC-t γ counter containing a NaI crystal (CAPINTEC, Ramsey, NJ, USA). All in vitro experiments regarding PSMA and the determination of radiotracers’ stability were performed in triplicate to ensure reproducibility.
(§2) […] was eluted from a ^68Ge/^68Ga generator with 0.05M HCl (≈200 MBq/mL). […]
(§3) A total of four kinds of PSMA-related ligands were designed and synthesized. The radiochemical purity of these four ^68Ga/^177Lu-labeled compounds was detected by HPLC (Figure 1) and thin-layer chromatography (Figure S5). […]

[2] = In vitro stability of radiotracers in FBS (radiochemical purity by HPLC); type: in vitro ADME; details: incubated in FBS at 37 °C for 2 h
Protocol: as §1, §2, §3

[3] = Lipophilicity determination (n-octanol/PBS partition); type: physicochemical; details: ^68Ga-labeled ligand
Protocol: Nuclide-labeled ligand (20 μL, ≈50 μCi), PBS (480 μL), and saturated n-octanol (500 μL) were added in a 1 mL EP tube, followed by vortex. Then the mixture was centrifuged at a low temperature (−5 °C) for 10 min until the mixture was separated into the upper and the lower layers. Liquids in the two phases were transferred into EP tubes and measured by the γ-counter. The calculation of the LogP value was based on the following equation: LogP = Lg [(counting of the organic phase − background counting)/(counting of the aqueous phase − background counting)]

[4] = biological target: T1, human albumin (Homo sapiens, UniProt P02768); assay: In vitro determination of albumin binding (ultrafiltration); type: in vitro ADME; details: human serum albumin 20 mg/mL, 37 °C, ^68Ga-labeled
T1 construct: purchased Sigma-Aldrich (Shanghai, China) or Shanghai yuanye Bio-Technology (general reagents statement; not tied to albumin)
Protocol: The albumin-binding rate of each ligand was measured by the γ-counter. ^68Ga-labeled PSMA ligand (≈50 μCi) was added into the human albumin solution (20 mg/mL). The mixture was incubated in a water bath (37 °C) for 30 min and 120 min, followed by ultrafiltration centrifugation for 5 min (10 kD, 10,000 rpm). The compound activities of the uncombined albumin or those retained on the filter membrane were measured by the γ counter, according to which the percentage of serum albumin binding activity (retained on the filter membrane) to total activity was calculated.
The calculation was based on the following equation: (counting of albumin retained on membrane − background counting)/(counting of albumin retained on membrane + counting of filtered liquid − 2* background counting) × 100%, and the average of three sets of data was taken as the final result.

[5] = system: PC-3 PIP cells; assay: Cellular uptake and 2-PMPA blocking in PC-3 PIP cells; type: cell-based
Protocol: Cellular experiments in this study were performed in the PC-3 PIP cell line. PC-3 PIP, a PCa cell line with stably high-expressed PSMA [28], was a gift from Professor Chen from the National University of Singapore. Cells were cultured in ATCC 1640 medium with 10% of FBS, L-glutamine, and antibiotic (37 °C, 5% CO2).
PC-3 PIP cells were cultured in ATCC 1640 medium containing 10% FBS. When cultured to 70–80% confluency, cells were collected and seeded in a 24-well plate. After culturing overnight (37 °C, 5% CO2), the culture medium was replaced by serum-free ATCC 1640 medium (serum-starved cell culture) for 0.5 h. Then nuclide-labeled compounds were added into wells (50 µL, 1 μCi/well) with gentle shakes to ensure they were well distributed. After incubating for 30 min/60 min/120 min, cells at each time point were digested by NaOH and measured by the γ-counter to calculate the uptake rate (n ≥ 3). Cells were co-incubated with glycine (pH = 2.8) for 1 min, and then the procedure above was repeated after dissolving in 1 M NaOH (procedure for internalization). Cells were incubated with PSMA inhibitor (2-PMPA) for blocking assays for 15 min before adding the labeled ligands.

[6] = biological target: T2, PSMA (PC-3 PIP cells) (Homo sapiens, UniProt Q04609); assay: Competitive binding IC50 against [^68Ga]Ga-PSMA-11 in PC-3 PIP cells; details: competition with [^68Ga]Ga-PSMA-11, 1 h
T2 construct: expressed in transfected cells; host or cells: PC-3 PIP cells (PC-3 stably expressing PSMA; gift from Professor Chen, National University of Singapore)
Protocol: PC-3 PIP cells were seeded in 96-well plates in triplicate and cultured to a density of 5* × 10^5 cells per well. [^68Ga]Ga-PSMA-11 was added into wells after serum-starved cell culture (1 μCi/well, ≈171 nmol/L), after which different PBS-diluted competitive ligands were added in wells and cultured for another hour. Then cells were washed with cold PBS twice removing the supernatant. Cells were collected and transferred to test tubes for counting by the γ-counter. IC50 values were analyzed and confirmed by nonlinear regression on GraphPad Prism Software.

[7] = system: PC-3 PIP tumor; assay: Biodistribution in PC-3 PIP tumor-bearing mice; type: in vivo; details: 2 h p.i.
Protocol: (§4) PC-3 PIP cells at the logarithmic phase were collected after trypsinization and re-suspended to 5 × 10^7/mL with serum-free medium after removing the supernatant. Mice (6 weeks) were subcutaneously injected with 200 μL of cell suspension, and utilized for small animal PET/CT imaging, SPECT/CT imaging, and biodistribution analysis when tumor volume was ≧100 mm^3. All animal experiments were conducted with the approval of The Southwest Medical University Animal Ethics Committee.
PC-3 PIP tumor-bearing mice (n > 3) were divided into four groups and respectively injected with 0.1 mL (70μCi) of [^68Ga]Ga-DOTA-(1P-PEG4), [^68Ga]Ga-DOTA-(2P-PEG0), [^68Ga]Ga-DOTA-(2P-PEG4), and [^68Ga]Ga-DOTA-(2P-PEG4)2 through the caudal vein. Mice were executed at 30 min/60 min/120 min after injection. Heart, blood, lung, liver, stomach, spleen, kidney, muscle, intestine, bone, salivary gland, and tumor were collected and detected by the γ-counter. The fitted curve was calculated on the basis of standard diluted samples of the initial dosage, and then the percentage of injected dose per gram of tissue (ID%/g) was calculated.

[8] = system: PC-3 PIP tumor; assay: Micro animal PET/CT and SPECT/CT imaging of PC-3 PIP tumor-bearing mice; type: in vivo
Protocol: as §4, with “Committee. Tumor-bearing mice (n = 3) were intravenously injected with 0.1 mL (80μCi) of freshly prepared ^68Ga/^177Lu-labeled PSMA ligands. PET/CT imaging was performed at 0.5/1/2/5 h after injection, and SPECT/CT imaging was performed at 6/24/48 h after injection. The acquired PET/CT and SPECT/CT data were re-constructed by OSEM (ordered subsets expectation maximization).” for “Committee.”

T1 sequence (P02768 25-609): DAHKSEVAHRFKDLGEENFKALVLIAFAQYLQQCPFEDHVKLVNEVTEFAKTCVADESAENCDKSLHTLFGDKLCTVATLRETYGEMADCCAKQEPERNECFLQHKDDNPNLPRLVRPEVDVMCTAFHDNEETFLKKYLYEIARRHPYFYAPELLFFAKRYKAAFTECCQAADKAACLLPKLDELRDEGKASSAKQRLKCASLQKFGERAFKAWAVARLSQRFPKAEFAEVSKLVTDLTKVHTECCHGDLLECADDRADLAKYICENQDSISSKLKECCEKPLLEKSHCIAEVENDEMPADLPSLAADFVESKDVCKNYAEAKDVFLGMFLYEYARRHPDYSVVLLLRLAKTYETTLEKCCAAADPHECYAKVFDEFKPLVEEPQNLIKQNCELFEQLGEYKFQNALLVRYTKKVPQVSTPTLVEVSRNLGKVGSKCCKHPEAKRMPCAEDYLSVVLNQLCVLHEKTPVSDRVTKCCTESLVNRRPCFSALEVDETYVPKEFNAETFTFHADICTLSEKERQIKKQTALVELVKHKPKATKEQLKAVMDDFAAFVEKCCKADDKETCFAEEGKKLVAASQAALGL
T2 sequence (Q04609 whole entry): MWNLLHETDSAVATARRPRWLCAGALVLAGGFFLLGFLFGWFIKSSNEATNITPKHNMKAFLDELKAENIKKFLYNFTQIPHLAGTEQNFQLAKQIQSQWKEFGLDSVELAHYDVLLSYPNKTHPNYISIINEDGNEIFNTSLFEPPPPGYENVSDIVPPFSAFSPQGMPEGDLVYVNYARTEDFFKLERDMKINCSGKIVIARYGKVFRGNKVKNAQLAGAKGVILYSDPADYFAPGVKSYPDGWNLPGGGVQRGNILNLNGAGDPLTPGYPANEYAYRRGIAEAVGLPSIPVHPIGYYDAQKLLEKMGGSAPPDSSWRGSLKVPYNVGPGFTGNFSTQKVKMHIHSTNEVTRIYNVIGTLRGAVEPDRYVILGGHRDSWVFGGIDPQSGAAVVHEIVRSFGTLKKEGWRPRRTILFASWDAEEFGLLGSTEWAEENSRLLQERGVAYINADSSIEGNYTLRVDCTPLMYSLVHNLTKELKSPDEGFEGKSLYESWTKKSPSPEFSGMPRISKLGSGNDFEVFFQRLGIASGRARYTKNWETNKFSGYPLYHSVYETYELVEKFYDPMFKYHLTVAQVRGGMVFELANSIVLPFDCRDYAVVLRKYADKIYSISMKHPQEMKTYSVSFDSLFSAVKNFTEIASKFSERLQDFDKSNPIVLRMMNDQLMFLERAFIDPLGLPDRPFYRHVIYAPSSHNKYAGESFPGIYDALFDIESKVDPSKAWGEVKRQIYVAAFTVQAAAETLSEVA

In the case of `O=C(O)CC[C@H](NC(=O)N[C@@H](CCCCNC(=O)[C@@H](CCC(=O)NCCCC[C@@H](NC(=O)N[C@H](CCC(=O)O)C(=O)O)C(=O)O)NC(=O)CN1CCN(CC(=O)O)CCN(CC(=O)O)CCN(CC(=O)O)CC1)C(=O)O)C(=O)O` [[^68Ga]Ga-DOTA-(2P-PEG0), metal not drawn], the “radiochemical purity (PBS) at 2 h” value [1] is reported as 95.78%, the “radiochemical purity (FBS) at 2 h” value [2] is reported as 95.21% and the logP [3] is reported as -2.84. For the same compound, the “albumin-binding rate (0.5 h)” value ([4]; 0.5 h) was 54.84%, the “albumin-binding rate (2 h)” value ([4]; 2 h) was 54.29% and the “uptake rate after co-incubation with PSMA inhibitor 2-PMPA” value ([5]; PC-3 PIP cells blocked by 2-PMPA, uptake at one hour (Figure 3C)) was 1.00 ± 0.16%. The “2 h cellular uptake rate” value ([5]; PC-3 PIP cells, 2 h, ^68Ga-labeled) was 8.39 ± 3.65%, the IC50 [6] was 0.455 µM and the “2 h blood uptake value” [7] was 2.78 ± 1.80 ID%/g. For the same compound, the “tumor uptake on PET/CT imaging” value ([8]; ^68Ga-labeled, PET/CT at 0.5/1/2/5 h after injection) was “began to decline at 2 h after injection”.
With `O=C(O)CC[C@H](NC(=O)N[C@@H](CCCCNC(=O)[C@H](Cc1ccc2ccccc2c1)NC(=O)[C@H]1CC[C@H](CNC(=O)CN2CCN(CC(=O)O)CCN(CC(=O)O)CCN(CC(=O)O)CC2)CC1)C(=O)O)C(=O)O` [[^177Lu]Lu-PSMA-617, metal not drawn, reference compound] the “kidney uptake on SPECT/CT imaging at 6 h” value ([8]; ^177Lu-labeled, SPECT/CT, 6 h after injection) was “detectable kidney uptake at 6 h”.
